From patent US7879996B2, “Water soluble compounds” (priority 2007, dated 2011)

Test: cationite (cation-exchanging) capacity
Type: physicochemical

## 2-([60] fullerene [1′,9′:3,4] cyclohexen-1-y1)-5,10,15,20-(tetra magnesium [(4-(N-(4-carboxy butyl) amino) phenyl 2,3-dicarboxylatel]) porphyrin iron (II) [PMC16]
  cationite capacities: 320-370 meqv/mmol
